The values that follow come from article PMC9562005, “The Kinetic Mechanism of 3′-5′ Exonucleolytic Activity of AP Endonuclease Nfo from E. coli” (Cells, 2022).

In this experiment the target is T1, Nfo (AP endonuclease Nfo, endonuclease IV) (Escherichia coli, UniProt P0A6C1).
T1 construct: full-length from pET-11a with nfo gene, expressed in E. coli BL21(DE3); 30 kDa, 3 Zn2+ in active site; the PDB entries are earlier structures of Nfo-DNA complexes
Description: stopped-flow 2-aminopurine fluorescence, inhibition of […]'-5' exonuclease. The experiment is classed as biochemical.

`Cc1cn([C@H]2C[C@H](O)[C@@H](COP(=O)(O)O)O2)c(=O)[nH]c1=O` [thymidine monophosphate] yielded an IC50 of 4.4 ± 0.5 mM.
Turning to `Nc1nc2c(ncn2[C@H]2C[C@H](O)[C@@H](COP(=O)(O)O)O2)c(=O)[nH]1` [2′-deoxyguanosine monophosphate], half-maximal inhibition (IC50) required 3.2 ± 0.4 mM.
